Source: the supplement of paper PMC10307832

How the values were obtained:
Experiment in all cases: relative viability (nuclei count vs DMSO), 5 days (fraction); higher = more cells survive
Erlotinib + Luminespib = compound: C#Cc1cccc(Nc2ncnc3cc(OCCOC)c(OCCOC)cc23)c1 [Erlotinib] + CCNC(=O)c1noc(-c2cc(C(C)C)c(O)cc2O)c1-c1ccc(CN2CCOCC2)cc1 [Luminespib] (partner 0.01 µM)
Summary of the method: (§1)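 Values are medians from duplicate plates. Each reflects relative viability, defined as the nuclei count of treated wells over that of vehicle wells. Lung cancer cell lines in 1536-well plates were pin-tool dosed one day after seeding with one drug alone or with a fixed anchor-drug dose plus five library-drug doses (not always all listed) in √10 steps, then fixed, stained and imaged at 4× after 5 days.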

AT9283 + Decitabine = compound: O=C(Nc1c[nH]nc1-c1nc2ccc(CN3CCOCC3)cc2[nH]1)NC1CC1 [AT9283] + Nc1ncn([C@H]2C[C@H](O)[C@@H](CO)O2)c(=O)n1 [Decitabine] (partner 2 µM)
Summary of the method: as §1

Erlotinib + Bortezomib = compound: C#Cc1cccc(Nc2ncnc3cc(OCCOC)c(OCCOC)cc23)c1 [Erlotinib] + CC(C)C[C@H](NC(=O)[C@H](Cc1ccccc1)NC(=O)c1cnccn1)B(O)O [Bortezomib] (partner 0.002 µM)
Summary of the method: as §1

AT9283 + OSI-027 = compound: O=C(Nc1c[nH]nc1-c1nc2ccc(CN3CCOCC3)cc2[nH]1)NC1CC1 [AT9283] + COc1cccc2cc(-c3nc([C@H]4CC[C@H](C(=O)O)CC4)n4ncnc(N)c34)[nH]c12 [OSI-027] (partner 0.5 µM)
Summary of the method: as §1

AT9283 + Alpelisib = compound: O=C(Nc1c[nH]nc1-c1nc2ccc(CN3CCOCC3)cc2[nH]1)NC1CC1 [AT9283] + Cc1nc(NC(=O)N2CCC[C@H]2C(N)=O)sc1-c1ccnc(C(C)(C)C(F)(F)F)c1 [Alpelisib] (partner 2 µM)
Summary of the method: as §1

Cell Line	relative viability (Erlotinib + Luminespib; first compound 0.02 µM)	relative viability (Erlotinib + Luminespib; first compound 0.2 µM)	relative viability (Erlotinib + Luminespib; first compound 0.6325 µM)	relative viability (Erlotinib + Luminespib; first compound 2 µM)	relative viability (AT9283 + Decitabine; first compound 0.003 µM)	relative viability (AT9283 + Decitabine; first compound 0.03 µM)	relative viability (AT9283 + Decitabine; first compound 0.09487 µM)	relative viability (AT9283 + Decitabine; first compound 0.3 µM)	relative viability (Erlotinib + Bortezomib; first compound 0.02 µM)	relative viability (Erlotinib + Bortezomib; first compound 0.2 µM)	relative viability (Erlotinib + Bortezomib; first compound 0.6325 µM)	relative viability (Erlotinib + Bortezomib; first compound 2 µM)	relative viability (AT9283 + OSI-027; first compound 0.003 µM)	relative viability (AT9283 + OSI-027; first compound 0.03 µM)	relative viability (AT9283 + OSI-027; first compound 0.09487 µM)	relative viability (AT9283 + OSI-027; first compound 0.3 µM)	relative viability (AT9283 + Alpelisib; first compound 0.003 µM)	relative viability (AT9283 + Alpelisib; first compound 0.03 µM)	relative viability (AT9283 + Alpelisib; first compound 0.09487 µM)	relative viability (AT9283 + Alpelisib; first compound 0.3 µM)
201T	1.01	1.03	1.06	0.874	0.654	0.849	0.322	0.345	1.12	1.06	1.12	1.02	0.663	0.776	0.188	0.206	1.02	1.08	0.525	0.445
A549	–	–	–	–	0.136	0.114	0.0516	0.05	–	–	–	–	–	–	–	–	0.973	0.0793	0.0636	0.068
A-427	1.18	0.932	0.857	0.76	0.6	0.494	0.239	0.248	1.01	1.04	1.1	0.951	0.421	0.326	0.159	0.176	1.04	1.01	0.209	0.176
ABC-1	–	0.684	0.771	0.601	1.3	0.513	0.346	0.346	0.25	0.355	0.328	0.287	0.436	0.245	0.213	0.201	0.957	0.238	0.269	0.355
BEN	0.369	0.34	0.442	0.693	0.52	0.557	0.347	0.347	0.644	0.864	1.28	0.886	0.31	0.296	0.24	0.219	0.969	0.987	0.23	0.245
CAL-12T	0.3	0.32	0.377	0.226	–	–	–	–	0.879	0.73	0.713	0.487	0.718	0.599	0.216	0.17	1.27	0.956	0.362	0.296
COR-L23	0.686	0.637	0.693	0.588	0.385	0.304	0.169	0.168	1.12	1.15	1.23	0.839	0.755	0.658	0.245	0.153	0.811	0.23	0.117	0.109
COR-L 105	0.779	0.472	0.378	0.216	0.67	0.394	0.317	0.328	0.828	0.342	0.407	0.335	0.606	0.292	0.284	0.231	1.49	0.342	0.278	0.333
Calu-6	–	–	–	–	–	–	–	–	0.992	1.02	1.04	0.933	–	–	–	–	0.986	0.23	0.26	0.246
